Measured values: PubChem BioAssay (NCI)
Values joined by “and” are separate entries in the source; they are usually repeats but may differ in a detail not shown here. Equal values may be shown once.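 These data come from cells grown in 96-well plates and exposed to compound for 48 hours at five concentrations. Abbreviation: GI50, concentration required for 50% inhibition of growth. The concentration for full growth arrest is given as TGI.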

Key:
Assay in all cases: NCI tumour cell line growth inhibition, 48 h
[1] = test system: SF-295 CNS
[2] = test system: HCT-116 colon
[3] = test system: DMS 114 small cell lung
[4] = test system: MOLT-4 leukemia
[5] = test system: NCI-H226 lung
[6] = test system: DLD-1 colon
[7] = test system: SK-MEL-2 melanoma
[8] = test system: HCT-15 colon
[9] = test system: A498 renal
[10] = test system: T-47D breast

## COc1ccc2c(c1)OCCC1=C2SCC2(C)CCN=C12 (configuration not stated)
[1]
  TGI: > 100 µM
[2]
  TGI: > 100 µM
[3]
  TGI: > 100 µM
[4]
  TGI: > 100 µM
[5]
  TGI: > 100 µM
[6]
  TGI: > 100 µM

## CC(=O)O[C@H]1C=CC23OC(=O)[C@]1(C)[C@H]2[C@H](C(=O)O)C12CC(=O)[C@@](CO)(CC[C@H]13)C2
[7]
  TGI: > 100 µM
[8]
  TGI: > 100 µM
[1]
  TGI: > 100 µM
[2]
  TGI: > 100 µM
[4]
  TGI: > 100 µM
[5]
  TGI: > 100 µM
[6]
  TGI: > 100 µM

## Nc1ccc(C(=O)N/C(=C\c2cccc([N+](=O)[O-])c2)c2nc3c4c(ccc3[nH]2)C(=O)c2ccccc2C4=O)cc1
[7]
  TGI: > 100 µM
[8]
  TGI: > 100 µM
[1]
  TGI: > 100 µM
[2]
  TGI: > 100 µM
[9]
  TGI: 57.7 µM
[3]
  TGI: > 100 µM
[4]
  TGI: > 100 µM
[6]
  TGI: > 100 µM

## Nc1c(-c2nc3ccccc3[nH]2)sc(=S)n1-c1ccc(Cl)cc1
[7]
  TGI: 63.8 µM
[8]
  TGI: 61.8 µM
[1]
  TGI: 43.6 µM
[9]
  TGI: 88.2 µM
[3]
  TGI: 42 µM
[4]
  TGI: > 100 µM
[5]
  TGI: 52.2 µM
[6]
  TGI: > 100 µM

## Cc1cc(S(=O)(=O)Nc2nc3cc(Cl)ccc3o2)c(SCc2ccccc2)cc1Cl
[7]
  GI50: 20.5 µM
  TGI: 43.1 µM
[10]
  GI50: 17.8 µM
  TGI: 39.7 µM
[8]
  GI50: 8.28 µM
  TGI: 25 µM
[1]
  GI50: 18.7 µM
  TGI: 46.1 µM
[2]
  GI50: 18.7 µM
  TGI: 42.7 µM
[9]
  GI50: 18.8 µM
  TGI: 35.5 µM
[4]
  GI50: 37.8 µM
  TGI: > 100 µM
[5]
  GI50: 38.5 µM
  TGI: > 100 µM

## O=c1c2c3c(sc2n2c(-c4ccc(Br)cc4)nnc2n1Cc1ccccc1)CCCC3
[7]
  GI50: 8.58 µM
  TGI: 21.2 µM
[10]
  GI50: 4.42 µM
  TGI: 16.8 µM
[8]
  GI50: 4.39 µM
  TGI: 17.8 µM
[1]
  GI50: 2.42 µM
  TGI: 7.51 µM
[2]
  GI50: 9.56 µM
  TGI: 22.7 µM
[9]
  GI50: 10.9 µM
  TGI: 22.9 µM
[4]
  GI50: 3.84 µM
  TGI: 91.6 µM
[5]
  GI50: 7.32 µM
  TGI: 20.3 µM

## Cn1ccnc1C[N-]Cc1nccn1C.O=[N+]([O-])[O-].O=[N+]([O-])[O-].[Cu+2]
[1]
  GI50: > 100 µM
  TGI: > 100 µM
[2]
  GI50: > 100 µM
  TGI: > 100 µM
[3]
  GI50: > 100 µM
  TGI: > 100 µM
[4]
  GI50: > 100 µM
  TGI: > 100 µM
[5]
  GI50: > 100 µM
  TGI: > 100 µM
[6]
  GI50: > 100 µM
  TGI: > 100 µM

## CCOc1cc(C(C)(C)C)ccc1C1=N[C@@](C)(c2ccc(Cl)cc2)[C@@](C)(c2ccc(Cl)cc2)N1C(=O)N1CCN(CCS(C)(=O)=O)CC1
[7]
  GI50: 5.29 µM
  TGI: 18.3 µM
[10]
  GI50: 3.7 µM
  TGI: 57.3 µM
[8]
  GI50: 2.27 µM
  TGI: 5.79 µM
[1]
  GI50: 3.15 µM
  TGI: 10.5 µM
[2]
  GI50: 0.804 µM
  TGI: 4.73 µM
[9]
  GI50: 0.655 µM
  TGI: 5.27 µM
[4]
  GI50: 0.751 µM
  TGI: 3.96 µM
[5]
  GI50: 0.5 µM
  TGI: 2.13 µM

## COc1cc([C@@H]2c3cc4c(cc3C(OC3O[C@@H]5COC(C)O[C@H]5[C@H](O)[C@H]3O)C3COC(=O)[C@@H]32)OCO4)cc(OC)c1O (some centres not stated)
[7]
  GI50: 7.37 µM
  TGI: 31.9 µM
[10]
  GI50: 0.331 µM
  TGI: > 33.1 µM
[8]
  GI50: 8.4 µM
  TGI: > 50 µM
[1]
  GI50: 0.72 µM
  TGI: 9.83 µM
[2]
  GI50: 1.27 µM
  TGI: > 50 µM
[9]
  GI50: 0.605 µM
  TGI: 14 µM
[4]
  GI50: 0.0948 µM
  TGI: 0.882 µM
[5]
  GI50: 0.792 µM
  TGI: 7.25 µM

## CCCn1c(N)c(C(=O)CNc2ccc(I)cc2)c(=O)[nH]c1=O
[7]
  GI50: > 100 µM
  TGI: > 100 µM
[10]
  GI50: > 100 µM
  TGI: > 100 µM
[8]
  GI50: 0.264 µM
  TGI: > 100 µM
[1]
  GI50: 0.795 µM
  TGI: > 63.6 µM
[2]
  GI50: 0.677 µM
  TGI: > 100 µM
[9]
  GI50: 27.5 µM
  TGI: > 100 µM
[4]
  GI50: 0.422 µM
  TGI: > 100 µM
[5]
  GI50: 12.9 µM
  TGI: > 100 µM

## O=C(Nc1cc(-c2cccnc2)nc(NCCCN2CCOCC2)n1)c1cc(Br)cc(C(F)(F)F)c1
[7]
  GI50: 4.52 µM
  TGI: 17 µM
[10]
  GI50: 3.72 µM
  TGI: 16.1 µM
[8]
  GI50: 1.92 µM
  TGI: 5.28 µM
[1]
  GI50: 1.94 µM
  TGI: 3.93 µM
[2]
  GI50: 2.09 µM
  TGI: 4.81 µM
[9]
  GI50: 3.43 µM
  TGI: 13.4 µM
[4]
  GI50: 3.63 µM
  TGI: 13.1 µM
[5]
  GI50: 9.3 µM
  TGI: 22.7 µM

## CCCCCCNC(=O)Oc1ccc(/C(=C(\C)c2ccccc2)c2ccc(OCCN(CC)CC)cc2)cc1
[7]
  GI50: 7.5 µM
  TGI: 14.8 µM
[10]
  GI50: 1.07 µM
  TGI: 8.17 µM
[8]
  GI50: 1.31 µM
  TGI: 3.68 µM
[1]
  GI50: 2.11 µM
  TGI: 7.38 µM
[2]
  GI50: 2.08 µM
  TGI: 7.39 µM
[9]
  GI50: 6.93 µM
  TGI: 13.6 µM
[4]
  GI50: 1.78 µM
  TGI: 7.79 µM
[5]
  GI50: 6.67 µM
  TGI: 14.3 µM

## Cc1ccc(S(=O)OC23CC4CC(CC(C4)C2)C3)cc1 (configuration not stated)
[8]
  TGI: > 100 µM
[1]
  TGI: > 100 µM
[2]
  TGI: > 100 µM
[9]
  TGI: > 100 µM
[3]
  TGI: > 100 µM
[4]
  TGI: > 100 µM
[5]
  TGI: > 100 µM
[6]
  TGI: > 100 µM

## COc1ccc(-c2c(N)n[nH]c2-c2cc(OC)c(OC)c(OC)c2)cc1
[7]
  GI50: 0.215 µM
  TGI: > 100 µM
[10]
  GI50: 25.3 µM
  TGI: > 100 µM
[8]
  GI50: 0.285 µM
  TGI: > 100 µM
[1]
  GI50: 0.0758 µM
  TGI: > 100 µM
[2]
  GI50: 0.173 µM
  TGI: > 38.8 µM
[9]
  GI50: 0.0549 µM
  TGI: 0.615 µM
[4]
  GI50: 0.275 µM
  TGI: > 100 µM
[5]
  GI50: 0.644 µM
  TGI: > 100 µM

## O=C(O)C(=O)CBr
[7]
  GI50: > 100 µM and 20 µM
  TGI: > 100 µM and 37.5 µM
[10]
  GI50: > 100 µM and 25.5 µM
  TGI: > 100 µM and 64.7 µM
[8]
  GI50: > 35.2 µM and 17.3 µM
  TGI: > 53.1 µM and 33.1 µM
[1]
  GI50: > 100 µM
  TGI: > 100 µM
[2]
  GI50: > 38.9 µM and 18.5 µM
  TGI: > 54.2 µM and 33.3 µM
[9]
  GI50: > 100 µM
  TGI: > 100 µM
[4]
  GI50: > 40.6 µM and 21.9 µM
  TGI: > 72.9 µM and 51.9 µM
[5]
  GI50: > 100 µM
  TGI: > 100 µM

## COc1ccc(NC(=O)/C=C(C)/C=C/C=C(C)\C=C\C2=C(C)CCCC2(C)C)cc1
[7]
  GI50: 72.4 µM
  TGI: > 100 µM
[10]
  GI50: 3.79 µM
  TGI: 43.1 µM
[8]
  GI50: > 100 µM
  TGI: > 100 µM
[1]
  GI50: 35.7 µM
  TGI: > 100 µM
[2]
  GI50: 28.6 µM
  TGI: > 100 µM
[9]
  GI50: > 100 µM
  TGI: > 100 µM
[4]
  GI50: 55.1 µM
  TGI: > 100 µM
[5]
  GI50: > 100 µM
  TGI: > 100 µM

## NCP(=O)(O)OCC(=O)O
[7]
  TGI: > 100 µM
[8]
  TGI: > 100 µM
[1]
  TGI: > 100 µM
[2]
  TGI: > 100 µM
[9]
  TGI: > 100 µM
[3]
  TGI: > 100 µM
[4]
  TGI: > 100 µM
[6]
  TGI: > 100 µM
